# Assay results reported in paper PMC12428754, “Testing Strategies for Metabolite-Mediated Neurotoxicity” (International Journal of Molecular Sciences, 2025).
# Assays:
# [1] = for metabolite formation over time: samples every 30 min for 2 h
# Procedure: Parent compounds were incubated at final concentrations of either (a) 5 µM or (b) 50 µM (for chlorfenapyr) with pooled human liver microsomes (HLM; mixed gender, n = 150; BioIVT; West Sussex, UK) at corresponding protein concentrations of (a) 0.52 mg/mL or (b) 5.2 mg/mL. Incubations were performed in the absence or presence of NADPH at final concentrations of (a) 1 mM or (b) 10 mM, respectively, using a thermostated orbital shaker at 37 °C and 150 rpm. Reactions were terminated at designated time points by the addition of acetonitrile/methanol (3:1, v/v). Samples were then centrifuged at 10,000× g for 10 min, and the resulting supernatants were analysed by LC-MS/MS.
# All analytes were measured using an Acquity UPLC H-Class system coupled to a Xevo TQ-S micro mass spectrometer (Waters). Chromatographic separation was performed on an Acquity UPLC BEH C18 column (2.1 × 50 mm, 1.7 µm) with a mobile phase consisting of 0.1% formic acid in water (A) and acetonitrile (B). Unless otherwise stated, the column was maintained at 30 °C and operated at a flow rate of 0.4 mL/min. The standard gradient was 95% A from 0 to 1.0 min, decreased to 2% A by 1.5 min, held until 4.0 min, returned to 95% A at 4.3 min, and held until 5.0 min. […] The mass spectrometer operated in electrospray ionisation (ESI) mode. Compound-specific MRM transitions, cone voltages, and collision energies for all analytes are listed in Supplementary Table S2.
# Int. J. Mol. Sci. 2025, 26, x FOR PEER REVIEW 3 of 5
# Supplementary Figure S3: Quantification of specific metabolite formation from selected parent/metabolite pairs in a human liver microsomes (HLM) assay. Parent compounds (PAR) were incubated at a concentration of 5 µM (50 µM for chlorfenapyr) with HLM in the absence (dashed line, open symbols) or presence of NADPH (solid lines, closed symbols). Samples were taken every 30 min for 2 h (+NADPH) or at 2 h only (- NADPH). The remaining fraction of the PAR was quantified for each sample. Additionally, one key metabolite (MET) was measured. Its amount is expressed as fraction of PAR converted to MET, assuming an equimolar PAR to MET reaction, 100 % indicates a complete conversion. The middle-dashed line indicates a metabolite formation of at least 10% of PAR. Data are means of two measurements n.d. = not detected.
# (1 picture or pasted object on this page, not shown here)
# [2] = system: LUHMES cells; conditions: rat liver S9 50 µg/mL in testing module, 2 h preincubation, RFP-LUHMES; toxicity increased with NADPH
# Procedure: Figure 4 A strategy to incorporate metabolic competence into in vitro DNT testing methods. (A) A schematic overview of a sequential metabolism and testing approach. The “metabolisation module” uses hepatic post-mitochondrial fractions (S9) to generate metabolite mixtures in the presence or absence of cofactors (NADPH, glucose-6-phosphate, MgCl2). These metabolite mixtures are tested in the “testing module” in a concentration-dependent manner after serial pre-dilutions. Metabolite mixtures are added as a fraction of 10% to the media volume of the “testing module”. The testing module may be a cell-based neurotoxicity (NT) or developmental neurotoxicity (DNT) assay, such as the neurite outgrowth or migration assay. Here, the Mito-Met neurite outgrowth assay, as in Figure 1, was used. […] The curves represent data from three independent experiments and were fitted using a four-parameter Hill function. […] The data represent three independent experiments. The indicated concentrations are “testing module” concentrations.
# To further evaluate our modular pre-activation strategy for identifying metabolite-mediated hazard, we tested a broader panel of compounds. For each compound (parent), a single concentration was used in the metabolisation module. The metabolite mixtures were generated in the absence or presence of NADPH. These metabolite mixtures were serially diluted and assessed using the MitoMet neurite outgrowth assay. As a measure of potency, EC25 values were determined, and potency ratios were calculated to compare the effects of NADPH-dependent versus NADPH-independent metabolism.
# Figure 5 The effect of NADPH-dependent hepatic metabolism on the DNT of selected compounds. (A) A strategy scheme to assess the effect of metabolic enzymes on the outcome of cell-based DNT assays. Metabolite mixtures are generated using the NADPH-(in)dependent metabolic activity of S9. NADPH-independent metabolism is shown in green (light grey). NADPH-dependent metabolism is shown in red (dark grey). […] (B–F) The concentration-dependent effect of metabolite mixtures on neurite outgrowth was measured as in Figure 1, with the following modifications: red-fluorescent-protein (RFP)-expressing LUHMES cells were used. As the assay endpoint, the RFP fluorescence of neurites was used instead of calcein staining. The curves represent data from three independent experiments and were fitted using a four-parameter Hill function. From this, an EC25 was calculated. Bold numbers indicate the fold changes between EC25 values of the NADPH-(in)dependent metabolite mixtures, with the direction of the arrow reflecting the shift in sensitivity. Note that the x-axes indicate nominal concentrations of parent compounds. […] Similar images were used for neurite quantification. The right image (red frame) of the pairs was obtained with NADPH. The black arrowheads above the curves indicate the experimental conditions used to record images. The scale bar in orange corresponds to 50 µm.
# The MitoMet neurite outgrowth assay was performed as previously described. In brief, all cell culture dishes and flasks were pre-coated with 50 μg/mL poly-l-ornithine (PLO) and 1 μg/mL fibronectin. Proliferating LUHMES cells were maintained in AdvDMEM/F12 containing L-glutamine (2 mM), N2 supplement (1x), and FGF (40 ng/mL). For pre-differentiation, the cells were replated at a density of 46,000 cells/cm^2 one day prior to the induction of differentiation (defined as the day of differentiation, Day −1). Differentiation was initiated by exchanging the culture medium for AdvDMEM/F12 supplemented with L-glutamine (2 mM), N2 supplement (1x), dibutyryl-cAMP (1 mM), tetracycline (1 µg/mL), and GDNF (2 ng/mL). After two days of differentiation (Day 2), the cells were replated (100,000 cells/cm^2) into 96-well plates.
# [3] = human liver microsomes, listed under the metabolite
Structure (SMILES),"extent of metabolite formation ([1]; human liver microsomes, result in words)","metabolite formation over time [1, 3]",fold change between EC25 values of NADPH-independent and NADPH-dependent metabolite mixtures (toxification) [2],"cofactor (NADPH) dependence of metabolite formation ([1]; human liver microsomes ± NADPH, result in words)","conversion rate of parent to metabolite ([1]; human liver microsomes, up to 2 h, listed under the metabolite)"
O=C(c1ccccc1)c1ccc(O)cc1 [4-Hydroxybenzophenone],only trace amounts,time-dependent increase in metabolite formation,–,–,–
CN(c1c(Br)cc(Br)cc1Br)c1c([N+](=O)[O-])cc([N+](=O)[O-])cc1C(F)(F)F [Bromethalin],–,–,8 x,–,–
CCOCn1c(-c2ccc(Cl)cc2)c(C#N)c(Br)c1C(F)(F)F [Chlorfenapyr],–,–,> 6 x,–,–
N#Cc1c(-c2ccc(Cl)cc2)[nH]c(C(F)(F)F)c1Br [Tralopyril],–,time-dependent increase in metabolite formation,–,clearly dependent on NADPH,approximately 10%
